Reference: patent US6814968B1, “Inhibition of viral infection and spread with viral and RhoA-derived peptides” (priority 1998, dated 2004)
“Also recorded” adds a separate entry of the source.

Legend:
[1] = test system: RSV; format: cell-based, respiratory syncytial virus; conditions: protein added to RSV prior to infection of HEp-2 cells
[2] = test system: HIV-1
[3] = test system: RSV; assay: RSV plaque inhibition assay: peptide pre-incubated with RSV, added to HEp-2 cells; format: cell-based, respiratory syncytial virus (A2 strain); conditions: 3 days; for plaque formation: peptide 5 mg/ml and 10 mg/ml incubated 1 h with RSV, vs PBS controls
[4] = test system: RSV; assay: Cell-to-cell spread / syncytium formation of RSV in HEp-2 monolayers, peptide added to cells; format: cell-based, respiratory syncytial virus
[5] = test system: HIV; assay: MAGI cell assay of HIV entry; format: cell-based; conditions: β-galactosidase activity as endpoint
[6] = test system: parainfluenza virus 3 (PIV3); assay: Syncytium formation by parainfluenza virus 3 in HEp-2 cells; format: cell-based
Method: RhoA77-95 was also added to HEp-2 cells in conjunction with parainfluenza virus 3 (PIV3) as infectious agent, as well as MT-2 cells, in conjunction with human immunodeficiency virus 1 (HIV-1) as infectious agent. Both viruses are known to cause the formation of syncytia during infection.

[7] = test system: RSV; assay: RSV infection of BALB/c mice, intranasal peptide treatment; format: in vivo
[8] = 10 amino acid peptides added to HEp-2 cell medium
[9] = 500 μg intranasally at the time of RSV challenge, 10^7 pfu RSV
[10] = 500 μg intranasally on day 4 after RSV infection, vs PBS-treated controls

Substance: whole RhoA protein: whole RhoA protein, 193 amino acid small GTP-binding protein
- number and size of plaques [1]: increased

Substance: RhoA67-85: 19 amino acid peptide comprising RhoA amino acids 67-85 (DRLRPLSYPDTDVILMCFS; UniProt P61586 67-85, looked up, fragment)
- destruction of infected MT-2 cells [2]: completely destroyed by day 14
- syncytium formation by HIV-1 [2]: visible syncytia by day 4
- plaque formation [3]: no inhibition

Substance: RhoA83-92: 10 amino acid peptide, RhoA residues 83-92 (CFSIDSPDSL; UniProt P61586 83-92, looked up, fragment)
- syncytium formation [4, 8]: did not block

Substance: RhoA77-86: 10 amino acid peptide, RhoA residues 77-86 (TDVILMCFSI; UniProt P61586 77-86, looked up, fragment)
- syncytium formation [4, 8]: did not block

Substance: RhoA87-105: 19 amino acid peptide comprising RhoA amino acids 87-105 (DSPDSLENIPEKWTPEVKH; UniProt P61586 87-105, looked up, fragment)
- destruction of infected MT-2 cells [2]: completely destroyed by day 14
- syncytium formation by HIV-1 [2]: visible syncytia by day 4
- plaque formation [3]: no inhibition

Substance: RhoA77-95: 19 amino acid peptide comprising the sequence of amino acids 77-95 of the RhoA protein (TDVILMCFSIDSPDSLENI; UniProt P61586 77-95, looked up, fragment)
- HIV virus entry into cells [5]: Inhibition
- HIV-1 replication (RT and p24 assays) [2]: inhibited
- HIV-1 virus entry into / infection of MT-2 cells [2]: inhibited
- reverse transcriptase activity in culture supernatants [2]: undetectable
- syncytia formation ([4]; peptide 5 mg/ml added 20 or 24 hours post-adsorption, HEp-2, evaluated after three days): inhibited syncytia formation
- number of virus infected cells ([4]; peptide 5 mg/ml added 4 hours after RSV adsorption, HEp-2, evaluated after three days): reduced the number of virus infected cells and limited infection to single cells
- cell-to-cell spread of RSV ([4]; peptide added after RSV adsorption, HEp-2): inhibited
- antigen-positive cells by immunoperoxidase staining ([3]; RSV-specific antibody): no antigen-positive cells were found
- plaque formation [3]: completely blocked; also recorded: inhibited; also recorded: inhibit plaque formation
- syncytium formation by PIV3 [6]: inhibited
- illness [7, 9]: no discernable illness
- weight loss [7, 9]: no discernable illness or weight loss
- signs of illness [7, 10]: markedly diminished
- weight loss [7, 10]: slight reduction
- inhibition of RSV in vivo ([7]; administered to mice): inhibited RSV in vivo
- Day 5 RSV Titer (Log10 pfu/gram lung ± S.D.) ([7]; peptide treatment on day 0 (time of challenge), lung plaque assay): 3.7 ± 0.3 Log10 pfu/gram lung
- Day 5 RSV Titer (Log10 pfu/gram lung ± S.D.) ([7]; peptide treatment on day 4, lung plaque assay): 4.7 ± 0.3 Log10 pfu/gram lung
- decrease of RSV titers in lung ([7]; treatment at the time of infection, day 5 lungs): over 100 fold
- reduction of RSV titers in lung ([7]; treatment on day 4, day 5 lungs): more than 10 fold

Substance: RhoA80-89: 10 amino acid peptide comprising amino acid residues 80-89 of the RhoA protein sequence (ILMCFSIDSP; UniProt P61586 80-89, looked up, fragment)
- RSV entry into HEp-2 cells [4, 8]: completely blocked
